A short description of data set [1]: Phase II SSTI trial: adverse events. Type of data set: in vivo, human. As to the method: Each patient who received at least one dose of study drug (ITT population) was evaluated for drug safety through monitoring of adverse events (AE), including abnormal clinical laboratory test results and vital signs. AE were rated by the investigator as to their severity (mild, moderate, severe, life-threatening), and by the relationship to the study drug (not related, unlikely related, possibly related, or probably related).

A short description of data set [2]: ESI-MS of multimers in solution.
Experimental: Experiments were performed using an Applied Biosystem API III+mass spectrometer equipped with a TurboIonSpray source, a Triple Quadrupole analyzer, operating in positive ion mode.
The mass spectra were obtained in electrospray positive mode on a Finnigan LCQDeca ion trap instrument previously tuned and calibrated in electrospray mode using Ultramark 1621, caffeine and MRFA (L-metionyl-arginyl-phenilalanyl-arginine).
The mass spectra were obtained in electrospray positive mode on a Finnigan LCQ^Deca ion trap instrument previous tuned and calibrated in electrospray mode using Ultramark 1621, caffeine and MRFA (L-metionyl-arginyl-phenilalanyl-arginine).
A further data set concerns the target HSA (Homo sapiens, UniProt P02768). Put plainly: MALDI-TOF mass spectrometry of protein-dalbavancin complexes. Type of data set: binding. As to conditions: very high dalbavancin:protein ratios (1:2, 1:10). As to the method: The samples were prepared for analysis using the dried droplet technique. Spectra were obtained on a BRUKER FLEX III, tof mass spectrometer previously tuned and calibrated using standard bovine serum albumin, acquiring and averaging spectra generated by 200 laser shots. Matrix: 9 parts of DHB-9 (2,5-dihydroxy-benzoic acid) saturated in acetonitrile/H2O (50:50), 1 part of sinapinic acid saturated in acetonitrile/H2O (50:50). 0.5 μl of sample solution and 0.5 μl of matrix solution were mixed and placed on the laser target. [00179]

Data set [3] has as its system N,N′-diacetyl-Lys-D-Ala-D-Ala. As to the kind of experiment: ITC of binding to tri-peptide, with and without HSA.

“And” between values parts separate entries of the source, which are not always exact repeats. Identical values can stand only once. Like-named read-outs stand apart in the source and are kept apart here.

Sequence of HSA (P02768 25-609): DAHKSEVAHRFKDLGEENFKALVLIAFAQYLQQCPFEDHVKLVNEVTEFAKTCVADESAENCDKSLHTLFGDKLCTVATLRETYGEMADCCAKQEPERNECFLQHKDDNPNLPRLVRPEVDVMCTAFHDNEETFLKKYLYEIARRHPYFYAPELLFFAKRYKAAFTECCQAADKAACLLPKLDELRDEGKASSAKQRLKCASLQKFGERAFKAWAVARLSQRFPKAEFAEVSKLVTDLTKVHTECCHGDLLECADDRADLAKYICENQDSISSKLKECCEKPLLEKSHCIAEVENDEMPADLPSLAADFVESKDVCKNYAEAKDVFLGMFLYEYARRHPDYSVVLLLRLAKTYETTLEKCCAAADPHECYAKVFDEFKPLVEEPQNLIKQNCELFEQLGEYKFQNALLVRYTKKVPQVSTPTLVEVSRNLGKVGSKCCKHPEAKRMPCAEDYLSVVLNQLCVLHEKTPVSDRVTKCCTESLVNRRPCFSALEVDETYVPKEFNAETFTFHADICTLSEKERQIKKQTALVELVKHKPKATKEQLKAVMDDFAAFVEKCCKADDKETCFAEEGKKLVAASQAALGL

Regarding `CN[C@H]1C(=O)N[C@@H]2Cc3ccc(cc3)Oc3cc4cc(c3O[C@@H]3O[C@H](C(=O)O)[C@@H](O)[C@H](O)[C@H]3NC(=O)CCCCCCCCC(C)C)Oc3ccc(cc3Cl)[C@@H](O)[C@@H]3NC(=O)[C@H](NC(=O)[C@@H]4NC(=O)[C@@H](NC2=O)c2cc(cc(O)c2Cl)Oc2cc1ccc2O)c1ccc(O)c(c1)-c1c(O[C@H]2O[C@H](CO)[C@@H](O)[C@H](O)[C@@H]2O)cc(O)cc1[C@@H](C(=O)NCCCN(C)C)NC3=O` [Dalbavancin], the “Clinically significant hepatotoxicity or nephrotoxicity” value in data set [1] (both dalbavancin regimens) is “no evidence”. In addition, the Tolerability entry in data set [1] (both doses) was “well tolerated”. Further, in data set [2], the “Multimers in solution (ESI-MS)” value is recorded as “presence of dalbavancin multimers”. The “population ratio of multimer to monomer vs concentration” value in data set [2] (20, 40, 60, and 80 μg/mL) is “increases with increasing concentration”. For the same molecule, in data set [2] (ammonium formate 5, 50, 100 mM, pH 5, increase in buffer concentration), the “population ratio of multimer to monomer vs ionic strength” value is reported as “decrease”. Also, in data set [2] (pH 2.5 to 5.5), the “population ratio of multimer to monomer vs pH” value is given as “increases with increasing pH”. Also, the “complex with HSA observed by MALDI-TOF” value at HSA is listed as 2 molecules of dalbavancin per protein molecule. Further, the “weaker binding affinity than in the absence of HSA” value in data set [3] (25° C., plateau at high HSA) is 10-12 ×. Besides, the Kass is 34900 M⁻¹ in data set [3] (T 25 ° C., [HSA] 104 μM); 31000 M⁻¹ in data set [3] (T 25 ° C., [HSA] 288 μM); 28400 M⁻¹ in data set [3] (T 25 ° C., [HSA] 430 μM); 130000 M⁻¹ and 110000 M⁻¹ in data set [3] (T 37 ° C., [HSA] 0 μM); 9568 M⁻¹ in data set [3] (T 37 ° C., [HSA] 516 μM). The Kd in data set [3] (read-out: Kdiss (preliminary experiments), absence of serum proteins, depending on temperature) is 1 to 10 µM; in data set [3] (read-out: Kdiss, T 25 ° C., [HSA] 288 μM) it was 32.3 µM; in data set [3] (read-out: Kdiss, T 37 ° C., [HSA] 0 μM), 7.69 µM and 9.09 µM; in data set [3] (read-out: Kdiss, T 37 ° C., [HSA] 516 μM), 105 µM.
